pEC50: −log10 of the molar value. Read-outs that look alike come from different tables or passages of the source. Numbered stars: 1 amine (or outer) side, 2 acyl side, 3 side chain; on linkers, the order of the positions; unused ones are H or OH. Side chains are listed from the residue outwards. Peptide text beside a SMILES is read from it. * marks the point of attachment. γGlu = O=C(O)[C@H](CCC(=O)[*:2])N[*:1]; Palmitoyl = CCCCCCCCCCCCCCCC(=O)*
Legend:
Assay in all cases: cAMP activity assay in assay medium (assay 1)
Assay type in all cases: cell-based
Conditions in all cases: assay medium
Human GLP1R = Human GLP1R (Homo sapiens, UniProt P43220); set-up: expressed in transfected cells
Human GLP1R, sequence (P43220 24-463): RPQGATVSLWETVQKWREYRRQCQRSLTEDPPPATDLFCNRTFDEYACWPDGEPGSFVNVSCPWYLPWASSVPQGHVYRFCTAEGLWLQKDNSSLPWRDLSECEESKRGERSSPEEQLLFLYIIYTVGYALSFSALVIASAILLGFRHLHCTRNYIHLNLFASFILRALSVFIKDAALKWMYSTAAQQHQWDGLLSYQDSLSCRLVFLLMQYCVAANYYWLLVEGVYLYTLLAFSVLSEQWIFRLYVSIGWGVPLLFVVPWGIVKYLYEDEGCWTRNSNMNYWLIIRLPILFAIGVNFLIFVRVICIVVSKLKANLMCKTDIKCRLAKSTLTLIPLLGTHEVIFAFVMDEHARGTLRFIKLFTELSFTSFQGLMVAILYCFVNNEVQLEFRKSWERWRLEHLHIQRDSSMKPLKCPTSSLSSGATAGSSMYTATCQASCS
Source text: (§1) Biological Activity of Peptides in Cell-Based cAMP Activity Assay (Assay 1):
(§2) All sample dilutions were made in duplicate.

Human GIPr = target: T1, Human GIPr (Homo sapiens, UniProt P48546)
T1 construct: expressed in transfected cells
T1 sequence (P48546 22-466): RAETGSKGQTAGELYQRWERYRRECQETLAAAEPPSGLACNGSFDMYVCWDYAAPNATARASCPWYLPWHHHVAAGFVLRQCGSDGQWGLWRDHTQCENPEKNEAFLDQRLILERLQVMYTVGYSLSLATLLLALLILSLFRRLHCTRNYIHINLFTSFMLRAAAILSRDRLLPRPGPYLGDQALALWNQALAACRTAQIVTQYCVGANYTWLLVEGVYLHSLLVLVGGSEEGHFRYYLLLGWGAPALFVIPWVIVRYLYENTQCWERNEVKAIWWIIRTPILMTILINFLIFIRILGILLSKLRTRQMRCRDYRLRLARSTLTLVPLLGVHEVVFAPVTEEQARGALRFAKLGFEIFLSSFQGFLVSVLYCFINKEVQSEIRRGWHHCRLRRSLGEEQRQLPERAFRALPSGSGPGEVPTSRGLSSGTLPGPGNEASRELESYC
Source text: as §1, §2

Human GlucR = target: T2, Human GlucR (Homo sapiens, UniProt P47871)
T2 construct: expressed in transfected cells
T2 sequence (P47871 26-477): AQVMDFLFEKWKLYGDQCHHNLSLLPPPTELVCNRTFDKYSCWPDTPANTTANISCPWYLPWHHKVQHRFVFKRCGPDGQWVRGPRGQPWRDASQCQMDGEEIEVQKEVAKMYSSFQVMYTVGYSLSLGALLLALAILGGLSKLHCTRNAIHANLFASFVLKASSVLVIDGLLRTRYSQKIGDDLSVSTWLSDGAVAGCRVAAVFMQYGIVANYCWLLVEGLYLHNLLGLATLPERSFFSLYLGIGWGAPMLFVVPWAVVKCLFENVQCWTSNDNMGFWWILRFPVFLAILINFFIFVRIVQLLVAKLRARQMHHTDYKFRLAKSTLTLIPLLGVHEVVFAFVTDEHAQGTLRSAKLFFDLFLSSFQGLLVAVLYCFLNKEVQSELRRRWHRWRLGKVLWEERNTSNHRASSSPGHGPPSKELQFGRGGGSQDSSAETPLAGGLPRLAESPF
Source text: as §1, §2

| Compound | pEC50 (Human GLP1R; Table 4, read-out: hGLP1R EC50) | pEC50 (Human GIPr; Table 4, read-out: hGIPR EC50) | pEC50 (Human GlucR; Table 4, read-out: hGlucR EC50) | pEC50 (Human GLP1R; Table 3, C-terminal acid peptides, read-out: Human GLP1R EC50) | pEC50 (Human GIPr; Table 3, C-terminal acid peptides, read-out: Human GIPr EC50) | pEC50 (Human GlucR; Table 3, C-terminal acid peptides, read-out: Human GlucR EC50) |
| --- | --- | --- | --- | --- | --- | --- |
| CCCCCCCCCCCCCCCC(=O)N[C@@H](CCC(=O)NCCCC[C@H](NC(=O)[C@H](CO)NC(=O)[C@H](CC(=O)O)NC(=O)[C@H](CC(C)C)NC(=O)[C@H](Cc1ccc(O)cc1)NC(=O)[C@H](CCCCN)NC(=O)[C@H](CO)NC(=O)[C@H](Cc1ccc(O)cc1)NC(=O)[C@H](CC(=O)O)NC(=O)[C@H](CO)NC(=O)[C@@H](NC(=O)[C@H](Cc1ccccc1)NC(=O)[C@@H](NC(=O)CNC(=O)[C@H](CCC(N)=O)NC(=O)[C@H](CO)NC(=O)[C@@H](N)Cc1c[nH]cn1)[C@@H](C)O)[C@@H](C)O)C(=O)N[C@@H](CCCNC(=N)N)C(=O)N[C@@H](C)C(=O)N[C@@H](CCCNC(=N)N)C(=O)N[C@@H](CC(=O)O)C(=O)N[C@@H](Cc1ccccc1)C(=O)N[C@H](C(=O)N[C@@H](CCC(=O)O)C(=O)N[C@@H](Cc1c[nH]c2ccccc12)C(=O)N[C@@H](CC(C)C)C(=O)N[C@H](C(=O)N[C@@H](C)C(=O)NCC(=O)NCC(N)=O)C(C)C)C(C)C)C(=O)O [g766] (H-HSQGTFTSDYSKYLDSK([γGlu-Palmitoyl])RARDFVEWLVAGG-NH2; N-terminus assumed) | 10.15 | 7.32 | 11.33 | – | – | – |
| CCCCCCCCCCCCCCCC(=O)N[C@@H](CCC(=O)NCCCC[C@H](NC(=O)[C@H](CC(=O)O)NC(=O)[C@H](CO)NC(=O)[C@@H](NC(=O)[C@H](Cc1ccccc1)NC(=O)[C@@H](NC(=O)CNC(=O)[C@H](CCC(N)=O)NC(=O)[C@H](CO)NC(=O)[C@@H](N)Cc1c[nH]cn1)[C@@H](C)O)[C@@H](C)O)C(=O)N[C@@H](CO)C(=O)N[C@@H](CO)C(=O)N[C@@H](Cc1ccc(O)cc1)C(=O)N[C@@H](CC(C)C)C(=O)N[C@@H](CC(=O)O)C(=O)N[C@@H](CO)C(=O)N[C@@H](CCCNC(=N)N)C(=O)N[C@@H](CO)C(=O)N[C@@H](C)C(=O)N[C@@H](CCCNC(=N)N)C(=O)N[C@@H](CC(=O)O)C(=O)N[C@@H](Cc1ccccc1)C(=O)N[C@H](C(=O)N[C@@H](C)C(=O)N[C@@H](Cc1c[nH]c2ccccc12)C(=O)N[C@@H](CC(C)C)C(=O)N[C@@H](CCC(=O)O)C(=O)N[C@@H](C)C(=O)NCC(=O)NCC(=O)O)C(C)C)C(=O)O [Peptide G973] | – | – | – | 10.92 | 7.33 | 11.05 |
| CCCCCCCCCCCCCCCC(=O)N[C@@H](CCC(=O)NCCCC[C@H](NC(=O)[C@H](CO)NC(=O)[C@H](CC(=O)O)NC(=O)[C@H](CC(C)C)NC(=O)[C@H](Cc1ccc(O)cc1)NC(=O)[C@H](CCCCN)NC(=O)[C@H](CO)NC(=O)[C@H](Cc1ccc(O)cc1)NC(=O)[C@H](CC(=O)O)NC(=O)[C@H](CO)NC(=O)[C@@H](NC(=O)[C@H](Cc1ccccc1)NC(=O)[C@@H](NC(=O)CNC(=O)[C@H](CCC(N)=O)NC(=O)CNC(=O)[C@@H](N)Cc1c[nH]cn1)[C@@H](C)O)[C@@H](C)O)C(=O)N[C@@H](CCCNC(=N)N)C(=O)N[C@@H](C)C(=O)N[C@@H](CCC(=O)O)C(=O)N[C@@H](CC(=O)O)C(=O)N[C@@H](Cc1ccccc1)C(=O)N[C@H](C(=O)N[C@@H](CCC(=O)O)C(=O)N[C@@H](Cc1c[nH]c2ccccc12)C(=O)N[C@@H](CC(C)C)C(=O)N[C@H](C(=O)N[C@@H](C)C(=O)NCC(=O)NCC(N)=O)C(C)C)C(C)C)C(=O)O [g680] (H-HGQGTFTSDYSKYLDSK([γGlu-Palmitoyl])RAEDFVEWLVAGG-NH2; N-terminus assumed) | 9.71 | 7.01 | 8.43 | – | – | – |
| CCCCCCCCCCCCCCCC(=O)N[C@@H](CCC(=O)NCCCC[C@H](NC(=O)[C@H](CO)NC(=O)[C@H](CC(=O)O)NC(=O)[C@H](CC(C)C)NC(=O)[C@H](Cc1ccc(O)cc1)NC(=O)[C@H](CCC(=O)O)NC(=O)[C@H](CO)NC(=O)[C@H](Cc1ccc(O)cc1)NC(=O)[C@H](CC(=O)O)NC(=O)[C@H](CO)NC(=O)[C@@H](NC(=O)[C@H](Cc1ccccc1)NC(=O)[C@@H](NC(=O)CNC(=O)[C@H](CCC(N)=O)NC(=O)CNC(=O)[C@@H](N)Cc1c[nH]cn1)[C@@H](C)O)[C@@H](C)O)C(=O)N[C@@H](CCCNC(=N)N)C(=O)N[C@@H](C)C(=O)N[C@@H](CCCNC(=N)N)C(=O)N[C@@H](CC(=O)O)C(=O)N[C@@H](Cc1ccccc1)C(=O)N[C@H](C(=O)N[C@@H](C)C(=O)N[C@@H](Cc1c[nH]c2ccccc12)C(=O)N[C@@H](CC(C)C)C(=O)N[C@@H](CCC(=O)O)C(=O)N[C@@H](CCCNC(=N)N)C(=O)NCC(=O)NCC(N)=O)C(C)C)C(=O)O [g721] (H-HGQGTFTSDYSEYLDSK([γGlu-Palmitoyl])RARDFVAWLERGG-NH2; N-terminus assumed) | 9.39 | 6.01 | 8.49 | – | – | – |
| CCCCCCCCCCCCCCCC(=O)N[C@@H](CCC(=O)NCCCC[C@H](NC(=O)CNC(=O)CNC(=O)CNC(=O)CNC(=O)CNC(=O)CNC(=O)[C@H](CCCNC(=N)N)NC(=O)[C@@H](NC(=O)[C@H](CC(C)C)NC(=O)[C@H](Cc1c[nH]c2ccccc12)NC(=O)[C@H](CCC(N)=O)NC(=O)[C@@H](NC(=O)[C@H](Cc1ccccc1)NC(=O)[C@H](CC(=O)O)NC(=O)[C@H](CCC(N)=O)NC(=O)[C@H](C)NC(=O)[C@H](CCCNC(=N)N)NC(=O)[C@H](CCCNC(=N)N)NC(=O)[C@H](CO)NC(=O)[C@H](CC(=O)O)NC(=O)[C@H](CC(C)C)NC(=O)[C@H](Cc1ccc(O)cc1)NC(=O)[C@H](CCCCN)NC(=O)[C@H](CO)NC(=O)[C@H](Cc1ccc(O)cc1)NC(=O)[C@H](CC(=O)O)NC(=O)[C@H](CO)NC(=O)[C@@H](NC(=O)[C@H](Cc1ccccc1)NC(=O)[C@@H](NC(=O)CNC(=O)[C@H](CCC(N)=O)NC(=O)[C@H](CO)NC(=O)[C@@H](N)Cc1c[nH]cn1)[C@@H](C)O)[C@@H](C)O)C(C)C)C(C)C)C(N)=O)C(=O)O [g327] | 10.71 | 7.89 | 11.63 | – | – | – |
| CCCCCCCCCCCCCCCC(=O)N[C@@H](CCC(=O)NCCCC[C@H](NC(=O)[C@H](CO)NC(=O)[C@H](CC(=O)O)NC(=O)[C@H](CC(C)C)NC(=O)[C@H](Cc1ccc(O)cc1)NC(=O)[C@H](CCCCN)NC(=O)[C@H](CO)NC(=O)[C@H](Cc1ccc(O)cc1)NC(=O)[C@H](CC(=O)O)NC(=O)[C@H](CO)NC(=O)[C@@H](NC(=O)[C@H](Cc1ccccc1)NC(=O)[C@@H](NC(=O)CNC(=O)[C@H](CCC(=O)O)NC(=O)[C@H](CO)NC(=O)[C@@H](N)Cc1c[nH]cn1)[C@@H](C)O)[C@@H](C)O)C(=O)N[C@@H](CCCNC(=N)N)C(=O)N[C@@H](C)C(=O)N[C@@H](CCC(N)=O)C(=O)N[C@@H](CC(=O)O)C(=O)N[C@@H](Cc1ccccc1)C(=O)N[C@H](C(=O)N[C@@H](CCC(N)=O)C(=O)N[C@@H](Cc1c[nH]c2ccccc12)C(=O)N[C@@H](CC(C)C)C(=O)N[C@H](C(=O)N[C@@H](C)C(=O)NCC(=O)NCC(N)=O)C(C)C)C(C)C)C(=O)O [g381] (H-HSEGTFTSDYSKYLDSK([γGlu-Palmitoyl])RAQDFVQWLVAGG-NH2; N-terminus assumed) | 10.04 | 6.26 | 8.71 | – | – | – |
